The target of test [1] is T1, interaction between 14-3-3γ and pHSP20 (Homo sapiens, UniProt P61981).
T1 sequence (P61981 1-247): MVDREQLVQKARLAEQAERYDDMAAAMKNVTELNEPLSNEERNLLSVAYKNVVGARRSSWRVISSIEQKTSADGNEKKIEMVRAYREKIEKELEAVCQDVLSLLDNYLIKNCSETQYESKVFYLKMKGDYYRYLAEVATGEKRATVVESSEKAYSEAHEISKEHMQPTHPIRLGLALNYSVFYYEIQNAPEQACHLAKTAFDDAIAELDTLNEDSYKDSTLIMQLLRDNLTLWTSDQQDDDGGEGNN
The test can be described thus: Fluorescence polarization assay of 14-3-3γ / fluorescein-labeled pHSP20 peptide (WLRRApSAP) interaction. In kind it is binding. The note with it: for inhibition of interaction between 14-3-3γ and pHSP20: dose response, FIG. 9; for IC50: multiple concentrations, FIG. 10. The procedure: The ability of compounds (a)-(k) to inhibit the interaction between 14-3-3γ and pHSP20 was determined by a fluorescence polarization (FP) assay. […] The initial screen for inhibitors examined approximately 50,000 compounds in the DiverSet library (ChemBridge, San Diego). Initial compound screening was carried out by first mixing peptide and individual compounds followed by addition of protein to a final volume of 15 ul. The final concentrations of each component were: 57.4 nM peptide, 10 uM compound, 5% DMSO, 1.5 uM 14-3-3 gamma, 0.01 M HEPES pH 7.4, 0.15 M NaCl, 3 mM EDTA, 0.005% Tween 20, 10 mM MnCl2, 9.33 mM Tris (7.5), and 0.0093% NaN3.
The ability of compounds (l) and (m) to inhibit the interaction between 14-3-3γ and pHSP20 was determined by a fluorescence polarization (FP) assay as described in Example 4, except that the compound was measured at multiple concentrations.
Background: In fluorescence polarisation assays a small probe gives low polarisation when free and higher when bound to something large.

Test [2] deals with Primary human airway smooth muscle cells. The test can be described thus: Spontaneous bead motion (MSD) of RGD-coated microbeads on airway smooth muscle cells. Type of test: cell-based. The note with it: for effect on bead motion: formulated with 4% cyclodextrin, 10-15 minutes incubation. The method, then:
Primary human airway smooth muscle cells were isolated from healthy individuals and cultured to passage 3-6. The cells were grown to confluence, and then serum deprived for 24 hours. The serum-deprived cells were plated on plastic wells coated with collagen.
After the cells were plated, RGD-coated microbeads were added. […] Consequently, the movement of the cells can be determined by monitoring the motion of the microbeads. In this assay, the rate of spontaneous bead motions (i.e., cell motion) depends upon the rate of reorganization of the actin cytoskeleton.
The position of each bead was recorded using video microscopy. The two-dimensional trajectory of bead motion are expressed as a mean square displacement (MSD) as a function of time: […]
where ri(t) is the distance of the ith bead at time t relative to its position at time 0.
The spontaneous bead motion in each sample of cells was first measured for 5 minutes. […] Spontaneous bead motions were then measured for another 5 minutes.

Test [3] shares this test system. Briefly: Magnetic twisting cytometry, cell stiffness (storage modulus G'). Type of test: cell-based. As to conditions: for change of cell stiffness (storage modulus): controls, measured over 10 minutes. The method, then: Primary human airway smooth muscle cells were isolated from healthy individuals and cultured to passage 3-6. The cells were grown to confluence, and then serum deprived for 24 hours. The serum-deprived cells were plated on plastic wells coated with collagen. After the cells were plated, RGD-coated microbeads were added. As described by Wang et al. Science 260:1124-1127, 1993, the microbeads become tightly anchored to the cell cytoskeleton. Consequently, the movement of the cells can be determined by monitoring the motion of the microbeads.
Once the cells were attached to the microbeads, the beads were magnetized using a magnetizing coil and twisted using a twisting coil, which generates an oscillating magnetic field at 0.7 Hz. The bead displacement is measured using video microscopy at 83 ms intervals. The amplitude of bead displacement is dependent on several factors, but generally the displacement is directly proportional to cell stiffness. The cell stiffness is expressed as a change of storage modulus (G′) over time (Maksym et al., J. Appl. Physiol. 89: 1619-1632, 2000).
The cell stiffness for control experiments and experiments using peptides was measured over 10 minutes. The peptides were added 1 minute after the start of the experiment. The cell stiffness for non-peptidyl compounds of the invention was measured for 1 minute, stopped, compound added and stiffness was measured for another 10 minutes.

For test [4], the system named is Bovine coronary artery rings. The test can be described thus: Contraction/dilation of serotonin-treated bovine coronary artery rings. Type of test: cell-based. As to conditions: for effect on the rings: cyclodextrin formulation, serotonin treated, 30 minutes after treatment. The procedure: Bovine coronary artery rings were treated with compositions containing only cyclodextrin or formulations of cyclodextrin in combination with a pHSP20 peptide, compound (m) or compound (n). The contraction of the rings was measured over time after treatment with serotonin and one of the formulations above. Each of the formulations was tested at several concentrations, with the exception of the pHSP20 peptide.

A further test relates to 14-3-3 proteins. The test can be described thus: Pull-down with bead-immobilized peptides from HEK293 whole cell lysate, SDS-PAGE and MS analysis. Type of test: binding, human. As to conditions: peptide immobilized on Affigel 10 beads. The procedure:
To determine if the pHSP20 peptide binds to 14-3-3, pull-down experiments were conducted with pHSP20 and its analogues, aHSP20 and scrHSP20, linked to NHS activated Affigel 10 beads. As an additional control, activated beads were also reacted with ethanolamine. Each of the bead-bound peptide samples and the ethanolamine control were then separately incubated for 1.5 h at 4° C. with a whole cell lysate derived from HEK293 cells. After thoroughly washing the beads, each of the four sets of beads was eluted with a 100 μM solution of the free peptide corresponding to the one immobilized on the beads; the ethanolamine control beads were eluted with pHSP20. Approximately 15% of the eluate volume was run on an SDS-PAGE gel, while the remainder of the eluate was precipitated with ethanol and then analyzed by a 2D-LC shotgun MS method (Washburn et al., 2001, Nat. Biotechnol. 19:242).
The N-terminal amino group of the peptides was utilized for the immobilization to N-hydroxysuccinimide activated Affi-Gel 10 beads (Biorad, Hercules, Calif.). For the immobilization, 60 μg of each peptide, dissolved in dimethylformamide (DMF), was incubated for 4 h with 100 μl beads and 0.14 μmol triethylamine (Sigma, St. Louis, Mo.). The final volume during the immobilization was 400 μl. […] The release of the ivDde group was monitored by measuring the absorption at 290 nm. […]

The subject of test [5] is 14-3-3 isoforms (YWHAG, YWHAH, YWHAE, YWAHB, YWHAZ). The test can be described thus: Biacore binding of tagged 14-3-3 isoforms to immobilized pHSP20 peptide. As to conditions: E23- and E25-tagged 14-3-3 proteins. The method, then: To further determine binding specificity of the pHSP20 peptide for each 14-3-3 isoform, similar binding experiments were carried out with each 14-3-3 isoform. Various 14-3-3 isoforms were either tagged with GST-His (referred to as “E23”) or tagged with Biotin-His (referred to as “E25”). The E23-14-3-3 proteins (tagged with GST-His) bound much better than the E25-14-3-3 proteins (tagged with Biotin-His). Similar effects were detected by using a version of YWHAG (also referred to as 14-3-3γ) in which the GST tag was proteolytically removed. […] It is believed that the GST either has a chaperone or stabilizing effect on YWHAG or it promotes the formation of dimers of YWHAG which could have different binding properties to pHSP20. Further experiments are planned to elucidate this discrepancy.
Background: In SPR one partner is held on a chip, and binding of the other changes the refractive index at the surface.

For another test, the target named is T2, 14-3-3 gamma isoform (Homo sapiens, UniProt P61981).
T2 construct: GST-His (E23) or Biotin-His (E25)
T2 sequence (P61981 1-247): T1 sequence (P61981 1-247)
The test can be described thus: Biacore competition: 14-3-3 gamma flowed over immobilized pHSP20 peptide in presence of competing peptides. In kind it is binding. As to conditions: free peptide as competitor. The procedure: To determine the relative binding affinity between various truncated versions of the pHSP20 (phosphorylated HSP20) peptide and the 14-3-3 gamma isoform, Applicants employed Biacore binding assays and the experiments were set up as follows. The pHSP20 peptide used in the original experiments (e.g., WLRRAp[…]) was immobilized to a Biacore chip and competition experiments were performed by flowing a 14-3-3 gamma isoform protein over the chip in the presence of different pHSP20 truncation variants. The pHSP20 truncation variants included: a) pHSP20 (positive control); b) HSP20 (unphosphorylated pHSP20, negative control); c) RRApSAP (minimal 14-3-3 consensus binding sequence); d) WLRRApSAP; e) RRApSAPLP; f) RRAp[…]; g) WLRRApSAPLP.
Competition experiments were done whereby the only variable between experiments is the identity of the competing peptide.

Where “and” joins values, the source holds several entries; their conditions need not be identical. Equal entries are not always repeated. Entries after “also recorded” stand apart in the source; their conditions may differ. Non-standard residues stand in square brackets, D forms with d. Residues, ends and D or L forms follow the SMILES beside them. pS = N[C@@H](COP(=O)(O)O)C(=O)O

For `CC(C)(C)c1nc(Nc2ccccc2)s[n+]1C=C(Cl)Cl` [(a)], in test [1], the “inhibition of interaction between 14-3-3γ and pHSP20” value (“inhibition” below) was “able to largely inhibit interaction”.
In the case of `COc1ccccc1Nc1nc(-c2ccccc2)[n+](-c2ccccc2)s1` [(j)], the “inhibition” value in test [1] is listed as “able to largely inhibit interaction”.
`O=C(N/N=C/c1cc(O)ccc1Br)c1ccncc1` [(o)]: the “effect on bead motion” value in test [2] is “not conclusive”.
With `c1ccc(CNc2nc(-c3ccccc3)[n+](-c3ccccc3)s2)cc1` [compound (f)], the “change of cell stiffness compared to the cyclodextrin control” value in test [3] (solubilized with cyclodextrin, 10 minutes after addition) is “particular striking”. In test [1], the “inhibition” value was “able to largely inhibit interaction”. Further, the “effect on bead motion” value in test [2] is given as “clearly increases bead motion”.
As to `O=[N+]([O-])C1=Cc2cc(Br)cc(Br)c2OC1c1c(Cl)cccc1Cl` (stereo not drawn) [compound (l)], in test [1], the IC50 – broadly, the concentration at which inhibition is half-maximal – was roughly 32 µM.
`O=C(N/N=C/c1ccc(O)c(O)c1O)c1ccncc1` [compound (m)] had a half-maximal inhibitory concentration (IC50) in test [1] of roughly 13.5 µM. In addition, in test [4], the “duration of vasodilatory effect compared with pHSP20 peptide” value was “longer than that of the pHSP20 peptide”, the “vasodilatory effect at 40 minutes after treatment” value is recorded as “no significant decrease in the vasodilatory effect” and the “effect on the rings” value is recorded as “vasodilatory effect”. In addition, the “effect on bead motion” value in test [2] is reported as “not conclusive”.
In the case of `COc1ccc(/C=N/NC(=O)c2cncc(Br)c2)c(OC)c1OC` [compound (n)], in test [4], the “duration of vasodilatory effect compared with pHSP20 peptide” value is reported as “longer than that of the pHSP20 peptide”, the “vasodilatory effect at 40 minutes after treatment” value is reported as “no significant decrease in the vasodilatory effect” and the “effect on the rings” value is given as “vasodilatory effect”. In addition, in test [2], the “effect on bead motion” value is given as “not conclusive”.
For `NCCc1c[nH]cn1` [histamine], the “change of cell stiffness (storage modulus)” value in test [3] is given as “increased the cell stiffness”.
As to `CC(C)NCC(O)c1ccc(O)c(O)c1` (stereo not drawn) [isoproterenol], in test [3], the “change of cell stiffness (storage modulus)” value is on record as “decreased the stiffness”.
`CC(C)C[C@H](NC(=O)CNC(=O)[C@@H]1CCCN1C(=O)[C@H](CC(C)C)NC(=O)[C@@H]1CCCN1C(=O)[C@H](C)NC(=O)[C@H](COP(=O)(O)O)NC(=O)[C@H](C)NC(=O)[C@H](CCCNC(=N)N)NC(=O)[C@H](CCCNC(=N)N)NC(=O)[C@H](CC(C)C)NC(=O)[C@@H](N)Cc1c[nH]c2ccccc12)C(=O)N[C@@H](CO)C(=O)N[C@@H](CCCCN)C(=O)O` [pHSP20 peptide] (H-WLRRA[pS]APLPGLSK-OH; N-terminus and C-terminus assumed): the “binding of 14-3-3 proteins in pull-down” value in the test with 14-3-3 proteins is listed as “binds to 14-3-3 proteins”. Besides, in test [5], the “isoform specificity for the pHSP20 peptide” value is “YWHAG>YWHAH>YWHAE=YWAHB=YWHAZ and 14-3-3γ (YWHAG) and 14-3-3η (YWHAH) bind stronger than the other 14-3-3 isoforms”. Moreover, the “competition with immobilized pHSP20 peptide for binding to 14-3-3γ” value (from here on “competition”) at 14-3-3 gamma isoform was “binding of 14-3-3 to the pHSP20 ligand is decreased”.
Consider `O=[As]O` [sodium arsenite, reference compound], for which the “effect on bead movement” value in test [2] (200 μM, negative control) was “decrease in bead movement”.
As for RRApSAP, the “competition” value at 14-3-3 gamma isoform is “competed better than the original pHSP20 sequence; also recorded: higher binding affinity to 14-3-3 gamma than the original pHSP20 peptide; also recorded: strong competition”.
WLRRApSAP: the “competition” value on 14-3-3 gamma isoform is reported as “higher binding affinity to 14-3-3 gamma than the original pHSP20 peptide; also recorded: strong competition”.

For the origin of these results see patent US20090136561A1, “Non-peptidyl agents with pHSP20-like activity, and uses thereof” (Prolexys Pharmaceuticals, Inc., priority 2004, published 2009).
